One data set relates to Bmi-1 protein. The data set is described as follows: Sandwich ELISA Assay (Bmi-1 protein level in HT-1080 cells). Type of data set: cell-based. In outline:
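HT-1080 cells were treated with compounds (0.5% DMSO final) for 40-48 h at 37 °C. Lysates were assayed by sandwich ELISA: mouse anti-Bmi-1 capture, rabbit anti-Bmi-1 and HRP anti-rabbit detection, TMB read at OD450 (OD570 reference). Levels were quantified against a recombinant GST-Bmi-1 standard curve (125-8000 pg/mL).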

Structures are written as SMILES.

In the case of `CCc1nc2ccc(F)cc2n1-c1cc(N)nc(Nc2ccc(N(C)C)cc2)n1` [Cpd 162, N^2-[4-(dimethylamino)phenyl]-6-(2-ethyl-6-fluoro-1H-benzimidazol-1-yl)pyrimidine-2,4-diamine], the melting point was 230 to 232 °C. In the data set on Bmi-1 protein, this molecule yielded a concentration for a half-maximal effect (EC50) of 10 to 100 nM.
As to `CCc1nc2ccc(F)cc2n1-c1cc(N)nc(Nc2cccc(F)c2)n1` [Cpd 163, 6-(2-ethyl-6-fluoro-1H-benzimidazol-1-yl)-N^2-(3-fluorophenyl)pyrimidine-2,4-diamine], the melting point is 169 to 171 °C. In the data set on Bmi-1 protein, this molecule yielded an EC50 of 100 to 3000 nM.
Taken in the same sequence, the figures for `CCc1nc2ccc(F)cc2n1-c1cc(N)nc(Nc2cccc(OC)c2)n1` [Cpd 165, 6-(2-ethyl-6-fluoro-1H-benzimidazol-1-yl)-N^2-(3-methoxyphenyl)pyrimidine-2,4-diamine] were 133 to 135 °C and 100 to 3000 nM.
`CCc1nc2ccc(F)cc2n1-c1cc(N)nc(Nc2cccc(C)c2)n1` [Cpd 166, 6-(2-ethyl-6-fluoro-1H-benzimidazol-1-yl)-N^2-(3-methylphenyl)pyrimidine-2,4-diamine] displayed a melting point of 149 to 150 °C. The molecule further gave an EC50 in the data set on Bmi-1 protein of 100 to 3000 nM.
The matching figures for `CCc1nc2ccc(F)cc2n1-c1cc(N)nc(Nc2ccc(C#N)cc2)n1` [Cpd 167, 4-{[4-amino-6-(2-ethyl-6-fluoro-1H-benzimidazol-1-yl)pyrimidin-2-yl]amino}benzonitrile]: 252 to 255 °C and 100 to 3000 nM.
The matching figures for `CCc1nc2ccc(F)cc2n1-c1cc(N)nc(Nc2ccc(OC)c(F)c2)n1` [Cpd 168, 6-(2-ethyl-6-fluoro-1H-benzimidazol-1-yl)-N^2-(3-fluoro-4-methoxyphenyl)pyrimidine-2,4-diamine]: 129 to 131 °C and 1 to 10 nM.
Taken in the same sequence, the figures for `Cc1nc2ccc(F)cn2c1-c1cc(N)nc(Nc2ccc(F)cc2)n1` [Cpd 169, 6-(6-fluoro-2-methylimidazo[1,2-a]pyridin-3-yl)-N^2-(4-fluorophenyl)pyrimidine-2,4-diamine] were 250 to 253 °C and 100 to 3000 nM.
As to `Cc1nc2ccc(F)cn2c1-c1cc(N)nc(Nc2ccc(Cl)cc2)n1` [Cpd 172, N^2-(4-chlorophenyl)-6-(6-fluoro-2-methylimidazo[1,2-a]pyridin-3-yl)pyrimidine-2,4-diamine], the melting point was in the range of 243 to 246 °C. The same molecule displayed an EC50 with Bmi-1 protein of 1 to 10 nM.
Taken in the same sequence, the figures for `CCc1nc2ccc(F)cc2n1-c1cc(N)nc(Nc2ccc(Cl)c(F)c2)n1` [Cpd 175, N^2-(4-chloro-3-fluorophenyl)-6-(2-ethyl-6-fluoro-1H-benzimidazol-1-yl)pyrimidine-2,4-diamine] were 209 to 211 °C and 10 to 100 nM.
`Cc1cc2nc(C)n(-c3cc(N)nc(Nc4ccc(Cl)cc4)n3)c2cc1C` [Cpd 184, N^2-(4-chlorophenyl)-6-(2,5,6-trimethyl-1H-benzimidazol-1-yl)pyrimidine-2,4-diamine] returned a melting point of 111 to 112 °C. The same molecule registered a concentration for a half-maximal effect (EC50) in the data set with Bmi-1 protein of 100 to 3000 nM.
Molecule `COc1ccc(Nc2nc(N)cc(-n3c(C)nc4cc(C)c(C)cc43)n2)cc1` [Cpd 185, N^2-(4-methoxyphenyl)-6-(2,5,6-trimethyl-1H-benzimidazol-1-yl)pyrimidine-2,4-diamine] showed a melting point of 113 to 114 °C. In addition, the concentration for a half-maximal effect (EC50) in the data set on Bmi-1 protein is 10 to 100 nM.
`COc1ccc(Nc2nc(N)cc(-n3c(C)nc4cc(C)c(C)cc43)n2)cc1F` [Cpd 186, N^2-(3-fluoro-4-methoxyphenyl)-6-(2,5,6-trimethyl-1H-benzimidazol-1-yl)pyrimidine-2,4-diamine] came in with a melting point of 120 to 121 °C. Moreover, the EC50 in the data set on Bmi-1 protein was 10 to 100 nM.
The molecule `COc1ccc(Nc2nc(N)cc(-n3c(C)nc4cc(C)c(C)cc43)n2)cc1Cl` [Cpd 187, N^2-(3-chloro-4-methoxyphenyl)-6-(2,5,6-trimethyl-1H-benzimidazol-1-yl)pyrimidine-2,4-diamine] had a melting point of 129 to 131 °C. Further, the EC50 in the data set with Bmi-1 protein fell in the range of 10 to 100 nM.
The matching figures for `Cc1cc2nc(C)n(-c3cc(N)nc(Nc4ccc(OC(F)F)cc4)n3)c2cc1C` [Cpd 188, N^2-[4-(difluoromethoxy)phenyl]-6-(2,5,6-trimethyl-1H-benzimidazol-1-yl)pyrimidine-2,4-diamine]: 89 to 91 °C and 10 to 100 nM.
In the case of `COc1ccc(Nc2nc(N)cc(-c3c(C)noc3C)n2)cc1` [Cpd 189, 6-(3,5-dimethyl-1,2-oxazol-4-yl)-N^2-(4-methoxyphenyl)pyrimidine-2,4-diamine], the melting point fell in the range of 89 to 91 °C. Moreover, the concentration for a half-maximal effect (EC50) in the data set with Bmi-1 protein was 100 to 3000 nM.

Source of the values: US10370371B2, “Substituted pyrimidine Bmi-1 inhibitors” (PTC Therapeutics, Inc., priority 2013, dated 2019).
